Source: article PMC12320299 (Chemical Science, 2025)

Test system: SW480 cancer cells
Experiment: Proteome profiling of compound-treated SW480 cancer cells (24 h, approx. IC50, CYT and NE fractions)
Type: cell-based, human
Description: To gain insight into potential modes of action and derive structure–activity relationships on a molecular level, proteomic profiling experiments were carried out based on label-free quantification (LFQ) by nano-liquid chromatography tandem mass spectrometry (nLC-MS/MS). […] Six replicates were used per condition. The perturbations were evaluated at subcellular resolution by fractionating cells into cytoplasmic (CYT) and nuclear (NE) protein fractions. Those have been separately proteolytically digested and analysed (Fig. 3A). The perturbations with the 3-Et-NQ and 3-Morph-NQ complexes were performed against their respective solvent-treated controls (CON), yielding a total of 72 samples. […] Statistical significance of individual protein regulations was calculated by multiple testing-corrected P-values based on 5% false discovery rate (FDR = 0.05 and S0 = 0.1).
The position of each group represents the summed fold-changes of the individual proteins in the group according to the subcellular space, i.e., CYT and NE fractions, while the size represents the number of proteins in each group. […]
Proteome profiling of compound-treated SW480 cancer cells […]
cells per well and left to adhere in complete cell culture medium. After 24 h, the medium was exchanged with fresh complete medium (DMSO mock control) or fresh medium containing […]
solution in DMSO, respectively) and incubated for another 24 h. Each condition was carried out in hexuplicates. The cells were processed according to a nucleocytoplasmic fractionation protocol as previously described.3 All steps were performed on ice. The medium was removed, and the cells were washed twice with 1×PBS (phosphate buffered saline, 3 mL). Then, PBS was thoroughly removed. Isotonic lysis buffer (10 mM HEPES, 10 mM NaCl, 3.5 mM MgCl2, 1 mM EGTA, 0.25 M Sucrose, 0.5% Triton X-100) containing protease inhibitors (1% PMSF, Sigma, and 1% protease and phosphatase inhibitor cocktail, Roche) was added to the flasks, the cells were scraped off and transferred into labelled 15 mL Falcon tubes. The cellular membrane was ruptured using shear stress by pressing the cell suspension through a syringe 9–12 times. Membrane rupture with intact nuclei was monitored under a microscope. After centrifugation (960 g, 5 min), the supernatant containing the cytoplasmic (CYT) proteins was transferred into new tubes containing ice-cold ethanol (1 : 5, HPLC grade) and precipitated […]
overnight at –20 °C. The pellet containing the nuclei was incubated with a hypertonic solution (10 mM Tris-HCl, 1 mM EDTA and 0.5 M NaCl) and subsequently diluted 1:10 with NP-40 buffer (10 mm Tris-HCl, 1 mm EDTA and 0.5% Triton X-100) containing protease inhibitors (1% PMSF, Sigma, and 1% protease and phosphatase inhibitor cocktail, Roche). After centrifugation (960 g, 5 min), the soluble nuclear (NE) proteins were also transferred into new tubes containing ice-cold ethanol (1 : 5, HPLC grade) and precipitated overnight at –20 °C.
The precipitated proteins were finally pelleted by centrifugation (5000 g, 30 min, 4 °C), the solution was decanted and the pellet dried under vacuum.

[1] = cytoplasmic fraction, FDR = 0.05, S0 = 0.1
[2] = nuclear fraction, FDR = 0.05, S0 = 0.1

CCC1=C2[O][Os][O]C2(n2cccn2)c2ccccc2C1=O.Cc1ccc(C(C)C)cc1 (stereo not shown) [Compound 2a]
N° significantly regulated proteins, Total (CYT and NE): 968
GO BP Cellular response to heat, summed fold-changes (CYT fraction): 12.51
GO BP Cellular response to oxidative stress, summed fold-changes (CYT fraction): 2.82
GO BP DNA duplex unwinding, summed fold-changes (CYT fraction): -6.24
GO BP DNA replication, summed fold-changes (CYT fraction): -1.08
GO BP Double-strand break repair, summed fold-changes (CYT fraction): -1.23
GO BP Macroautophagy, summed fold-changes (CYT fraction): 10.51
GO BP Negative regulation of apoptotic process, summed fold-changes (CYT fraction): 3.78
GO BP Negative regulation of translation, summed fold-changes (CYT fraction): -16.92
GO BP Proteasome-mediated ubiquitin-dependent protein catabolic process, summed fold-changes (CYT fraction): 2.56
GO BP Protein K48-linked ubiquitination, summed fold-changes (CYT fraction): -5.49
GO BP Protein folding, summed fold-changes (CYT fraction): 12.25
GO BP Protein transport, summed fold-changes (CYT fraction): -1.68
GO BP Regulation of mRNA stability, summed fold-changes (CYT fraction): -7.54
GO BP Response to oxidative stress, summed fold-changes (CYT fraction): 3.27
GO BP Ribosomal small subunit biogenesis, summed fold-changes (CYT fraction): -13.81
GO BP Stress granule assembly, summed fold-changes (CYT fraction): -9.95
GO BP Translation, summed fold-changes (CYT fraction): -61.19
GO BP mRNA processing, summed fold-changes (CYT fraction): -0.15
GO BP rRNA processing, summed fold-changes (CYT fraction): -20.40
GO CC Azurophil granule lumen, summed fold-changes (CYT fraction): 3.77
GO CC Cell surface, summed fold-changes (CYT fraction): 0.48
GO CC Centrosome, summed fold-changes (CYT fraction): -15.78
GO CC Chromosome, telomeric region, summed fold-changes (CYT fraction): -11.84
GO CC Cytoplasmic stress granule, summed fold-changes (CYT fraction): -16.41
GO CC Cytosol, summed fold-changes (CYT fraction): -84.80
GO CC Endoplasmic reticulum, summed fold-changes (CYT fraction): -28.57
GO CC Extracellular exosome, summed fold-changes (CYT fraction): -26.34
GO CC Ficolin-1-rich granule lumen, summed fold-changes (CYT fraction): 8.74
GO CC Focal adhesion, summed fold-changes (CYT fraction): -17.07
GO CC Intracellular membrane-bounded organelle, summed fold-changes (CYT fraction): -3.80
GO CC Membrane, summed fold-changes (CYT fraction): -160.70
GO CC Mitochondrion, summed fold-changes (CYT fraction): -60.30
GO CC Nucleoplasm, summed fold-changes (CYT fraction): -4.45
GO CC Nucleus, summed fold-changes (CYT fraction): -0.98
GO CC Perinuclear region of cytoplasm, summed fold-changes (CYT fraction): -5.25
GO CC Proteasome complex, summed fold-changes (CYT fraction): 3.84
GO CC Protein-containing complex, summed fold-changes (CYT fraction): -12.02
GO CC Ribonucleoprotein complex, summed fold-changes (CYT fraction): -24.78
GO CC Spliceosomal complex, summed fold-changes (CYT fraction): -1.04
KEGG pathway Apoptosis, summed fold-changes (CYT fraction): 5.03
KEGG pathway Cellular senescence, summed fold-changes (CYT fraction): -0.24
KEGG pathway Ferroptosis, summed fold-changes (CYT fraction): 5.49
KEGG pathway Proteasome, summed fold-changes (CYT fraction): 4.95
KEGG pathway Protein processing in endoplasmic reticulum, summed fold-changes (CYT fraction): 25.89
KEGG pathway RNA degradation, summed fold-changes (CYT fraction): -8.81
KEGG pathway Ribosome, summed fold-changes (CYT fraction): -52.73
GO BP Cellular response to heat, summed fold-changes (NE fraction): 8.73
GO BP Cellular response to oxidative stress, summed fold-changes (NE fraction): -0.12
GO BP DNA duplex unwinding, summed fold-changes (NE fraction): -0.60
GO BP DNA replication, summed fold-changes (NE fraction): -7.21
GO BP Double-strand break repair, summed fold-changes (NE fraction): -0.87
GO BP Macroautophagy, summed fold-changes (NE fraction): 4.83
GO BP Negative regulation of apoptotic process, summed fold-changes (NE fraction): 2.62
GO BP Negative regulation of translation, summed fold-changes (NE fraction): 1.88
GO BP Proteasome-mediated ubiquitin-dependent protein catabolic process, summed fold-changes (NE fraction): 45.28
GO BP Protein K48-linked ubiquitination, summed fold-changes (NE fraction): -1.15
GO BP Protein folding, summed fold-changes (NE fraction): 2.10
GO BP Protein transport, summed fold-changes (NE fraction): 1.57
GO BP Regulation of mRNA stability, summed fold-changes (NE fraction): -0.24
GO BP Response to oxidative stress, summed fold-changes (NE fraction): -0.72
GO BP Ribosomal small subunit biogenesis, summed fold-changes (NE fraction): -1.30
GO BP Stress granule assembly, summed fold-changes (NE fraction): 3.01
GO BP Translation, summed fold-changes (NE fraction): -4.88
GO BP mRNA processing, summed fold-changes (NE fraction): 1.71
GO BP rRNA processing, summed fold-changes (NE fraction): -2.04
GO CC Azurophil granule lumen, summed fold-changes (NE fraction): -1.14
GO CC Cell surface, summed fold-changes (NE fraction): 0.76
GO CC Centrosome, summed fold-changes (NE fraction): 0.70
GO CC Chromosome, telomeric region, summed fold-changes (NE fraction): -12.89
GO CC Cytoplasmic stress granule, summed fold-changes (NE fraction): 4.82
GO CC Cytosol, summed fold-changes (NE fraction): 8.58
GO CC Endoplasmic reticulum, summed fold-changes (NE fraction): 8.32
GO CC Extracellular exosome, summed fold-changes (NE fraction): 5.34
GO CC Ficolin-1-rich granule lumen, summed fold-changes (NE fraction): 23.99
GO CC Focal adhesion, summed fold-changes (NE fraction): 9.01
GO CC Intracellular membrane-bounded organelle, summed fold-changes (NE fraction): 8.65
GO CC Membrane, summed fold-changes (NE fraction): -2.15
GO CC Mitochondrion, summed fold-changes (NE fraction): -7.86
GO CC Nucleoplasm, summed fold-changes (NE fraction): 29.04
GO CC Nucleus, summed fold-changes (NE fraction): 29.16
GO CC Perinuclear region of cytoplasm, summed fold-changes (NE fraction): 8.90
GO CC Proteasome complex, summed fold-changes (NE fraction): 37.70
GO CC Protein-containing complex, summed fold-changes (NE fraction): -3.65
GO CC Ribonucleoprotein complex, summed fold-changes (NE fraction): 3.30
GO CC Spliceosomal complex, summed fold-changes (NE fraction): -3.40
KEGG pathway Apoptosis, summed fold-changes (NE fraction): -0.73
KEGG pathway Cellular senescence, summed fold-changes (NE fraction): -3.09
KEGG pathway Ferroptosis, summed fold-changes (NE fraction): 1.80
KEGG pathway Proteasome, summed fold-changes (NE fraction): 35.64
KEGG pathway Protein processing in endoplasmic reticulum, summed fold-changes (NE fraction): 19.56
KEGG pathway RNA degradation, summed fold-changes (NE fraction): -5.97
KEGG pathway Ribosome, summed fold-changes (NE fraction): -4.75
N° proteins down-regulated, CYT [1]: 429
N° proteins upregulated, CYT [1]: 202
N° proteins down-regulated, NE [2]: 170
N° proteins upregulated, NE [2]: 167
